Assay results: patent US6288091A, “Antiherpes virus compounds and methods for their preparation and use” (Boehringer Ingelheim Ltd., priority 1999, dated 2001)
pEC50, pIC50: −log10 of the molar value.

Key:
HSV-1 helicase-primase = molecular target: T1, HSV-1 helicase-primase (Human herpesvirus 1, UniProt P10189+P10236); experiment: HSV-1 DNA-dependent ATPase assay (inhibition of HSV-1 helicase-primase); type: biochemical
T1 construct: made in house; host or cells: Sf21 insect cells triply infected with recombinant baculoviruses (UL5, UL8, UL52)
T1 sequence (P10192 whole entry): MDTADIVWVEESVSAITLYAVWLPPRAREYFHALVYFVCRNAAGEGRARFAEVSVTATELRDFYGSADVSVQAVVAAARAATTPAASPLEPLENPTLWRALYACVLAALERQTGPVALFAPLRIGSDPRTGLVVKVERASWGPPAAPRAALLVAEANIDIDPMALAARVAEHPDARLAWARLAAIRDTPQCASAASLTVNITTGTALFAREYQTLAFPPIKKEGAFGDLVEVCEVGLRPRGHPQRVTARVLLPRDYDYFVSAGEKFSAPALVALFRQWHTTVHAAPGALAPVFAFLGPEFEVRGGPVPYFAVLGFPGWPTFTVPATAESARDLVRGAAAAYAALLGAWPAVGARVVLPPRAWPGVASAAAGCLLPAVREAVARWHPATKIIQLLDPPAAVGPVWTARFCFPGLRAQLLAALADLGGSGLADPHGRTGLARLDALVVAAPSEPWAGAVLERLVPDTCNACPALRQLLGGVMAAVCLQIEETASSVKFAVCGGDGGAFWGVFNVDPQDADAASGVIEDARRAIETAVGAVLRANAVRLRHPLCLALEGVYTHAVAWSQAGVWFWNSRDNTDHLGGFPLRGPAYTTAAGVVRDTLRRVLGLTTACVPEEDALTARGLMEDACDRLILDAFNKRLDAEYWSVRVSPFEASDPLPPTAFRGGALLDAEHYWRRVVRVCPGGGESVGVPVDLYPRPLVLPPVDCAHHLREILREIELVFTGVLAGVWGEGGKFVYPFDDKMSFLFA
T1 sequence (P10236 whole entry): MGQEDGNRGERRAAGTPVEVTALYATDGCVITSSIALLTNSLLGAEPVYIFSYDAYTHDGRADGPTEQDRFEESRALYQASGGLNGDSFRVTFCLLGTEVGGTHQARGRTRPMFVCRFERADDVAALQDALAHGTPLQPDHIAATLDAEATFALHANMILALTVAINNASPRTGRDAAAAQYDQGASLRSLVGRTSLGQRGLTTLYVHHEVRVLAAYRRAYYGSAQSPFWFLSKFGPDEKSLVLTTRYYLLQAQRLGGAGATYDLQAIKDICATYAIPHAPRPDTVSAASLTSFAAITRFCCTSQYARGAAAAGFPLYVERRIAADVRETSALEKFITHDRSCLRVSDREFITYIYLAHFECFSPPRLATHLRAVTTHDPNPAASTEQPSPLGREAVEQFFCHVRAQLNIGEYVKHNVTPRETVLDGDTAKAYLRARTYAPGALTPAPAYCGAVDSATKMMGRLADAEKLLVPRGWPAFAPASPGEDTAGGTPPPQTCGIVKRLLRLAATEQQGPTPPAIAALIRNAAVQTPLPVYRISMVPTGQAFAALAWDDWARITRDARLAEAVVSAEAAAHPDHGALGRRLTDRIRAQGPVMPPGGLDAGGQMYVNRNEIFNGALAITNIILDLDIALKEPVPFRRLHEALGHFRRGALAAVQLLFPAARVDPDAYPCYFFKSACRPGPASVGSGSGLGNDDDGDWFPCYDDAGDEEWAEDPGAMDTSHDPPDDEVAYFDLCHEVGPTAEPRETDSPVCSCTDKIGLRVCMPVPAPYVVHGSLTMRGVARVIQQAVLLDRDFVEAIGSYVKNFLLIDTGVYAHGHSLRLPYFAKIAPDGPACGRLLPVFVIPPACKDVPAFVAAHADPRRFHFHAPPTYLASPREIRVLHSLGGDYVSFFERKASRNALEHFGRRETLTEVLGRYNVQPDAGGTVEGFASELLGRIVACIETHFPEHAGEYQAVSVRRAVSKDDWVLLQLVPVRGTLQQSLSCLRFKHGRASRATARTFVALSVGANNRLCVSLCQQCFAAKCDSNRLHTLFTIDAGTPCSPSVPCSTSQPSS
T1 sequence (P10189 whole entry): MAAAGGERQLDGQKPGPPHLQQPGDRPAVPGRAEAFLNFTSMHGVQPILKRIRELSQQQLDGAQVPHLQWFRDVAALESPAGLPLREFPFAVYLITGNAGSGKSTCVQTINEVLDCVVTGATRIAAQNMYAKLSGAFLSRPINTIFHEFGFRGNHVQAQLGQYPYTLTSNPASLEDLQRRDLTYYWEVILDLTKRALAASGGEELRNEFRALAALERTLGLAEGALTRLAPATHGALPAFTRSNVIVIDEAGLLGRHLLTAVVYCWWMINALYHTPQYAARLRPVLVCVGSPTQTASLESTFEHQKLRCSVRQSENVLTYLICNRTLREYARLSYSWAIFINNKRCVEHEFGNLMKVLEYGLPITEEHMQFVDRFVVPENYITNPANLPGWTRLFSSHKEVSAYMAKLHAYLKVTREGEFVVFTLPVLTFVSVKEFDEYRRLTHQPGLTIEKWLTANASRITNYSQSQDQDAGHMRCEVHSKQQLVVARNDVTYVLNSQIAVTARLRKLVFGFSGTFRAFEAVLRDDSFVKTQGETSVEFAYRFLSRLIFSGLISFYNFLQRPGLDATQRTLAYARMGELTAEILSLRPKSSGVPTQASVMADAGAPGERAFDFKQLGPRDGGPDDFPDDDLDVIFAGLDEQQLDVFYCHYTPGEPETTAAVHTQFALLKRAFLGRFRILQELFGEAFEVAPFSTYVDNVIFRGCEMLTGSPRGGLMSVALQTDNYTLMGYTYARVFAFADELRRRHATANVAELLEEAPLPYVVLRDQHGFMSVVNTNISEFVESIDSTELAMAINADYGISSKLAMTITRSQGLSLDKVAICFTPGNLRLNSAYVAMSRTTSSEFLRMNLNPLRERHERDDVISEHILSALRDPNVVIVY
Text: A) HSV-1 DNA-Dependent ATP Assay (an in Vitro Assay Based on the Inhibition of HSV-1 Helicase-primase).
HSV-1 helicase-primase holoenzyme was produced in triply infected Sf21 cells using recombinant baculoviruses expressing the UL5, UL8 and UL52 helicase-primase subunits, as described by S. Dracheva et al., J. Biol. Chem. 1995, 270, 14148. The crude enzyme was purified by ammonium sulfate precipitation, Source 15Q® chromatography and Sephacryl® S-300 HR gel filtration (both purification systems can be obtained from Pharmacia Biotech Inc., Montreal, Quebec, Canada), see S. Dracheva et al., supra.
The DNA-dependent ATPase assay, described by J. J. Crute et al., Nucleic Acids Res. 1988, 16, 6585, was modified and used to evaluate the capability of the compounds of Group 1-formula 1 to inhibit HSV-1 helicase-primase activity. The reaction mixtures (80 μL each) contained 40 mM 4-(2-hydroxyethyl)-1-piperazineethanesulfonic acid (HEPES, pH 7.5), 10% (v/v) glycerol, 5.5 mM MgCl2, 1 mM DL-dithiothreitol (DTT), 50 μg/mL acetylated bovine serum albumin, 3.3% (v/v) DMSO, 4 mM ATP, 25 μM single-stranded M13 DNA hybridized to double-tailed 68-mer oligonucleotide and 3 μg/mL HSV-1 helicase-primase. After incubation for 20 min at 34°, formation of inorganic phosphate from hydrolysis of ATP was monitored spectrophotometrically at 650 nm using acidic ammonium molybdate/malachite green reagent, P. A. Lanzetta et al., Anal. Biochem. 1979, 100, 95. DNA-dependent ATPase activity was calculated from the net absorbance change in the presence and absence of inhibition.

HSV-1 strain F or KOS = experiment: Inhibition of herpes simplex virus (HSV-1) replication in cell culture (BHK-21 cells, glycoprotein C ELISA); type: cell-based
Experimental: B) Inhibition of Herpes Simplex Virus (HSV-1) Replication in Cell Culture
BHK-21 cells clone 13 (ATCC CCL10) were incubated for two days in 850 cm^2 roller bottles (2×10^7 cells/bottle) with A-MEM medium (Gibco Canada Inc., Burlington, Ontario, Canada) supplemented with 8% (v/v) fetal bovine serum (FBS, Gibco Canada, Inc.). The cells were trypsinized and then 3,000 cells in 100 μL of fresh medium were transferred into each well of a 96-well microtiter plate. The cells were incubated at […] for a period of 3 days to reach a density of 50,000 cells per well. The cells were washed twice with 100 μL of α-MEM supplemented with 2% heat inactivated FBS and incubated for 1-2 hours in 100 μL of the same medium.
Thereafter, the cells were infected with HSV-1 strain F or KOS (multiplicity of infection =0.05 PFU/cell) in 50 μL of α-MEM supplemented with 2% heat inactivated FBS. Following one hour of virus absorption at 37°, the medium was removed and the cells were washed with α-MEM supplemented with 2% heat inactivated FBS (2×100 μL). The cells were incubated with or without 100 μL of the appropriate concentration of test reagent in α-MEM medium supplemented with 2% heat inactivated FBS. After 24 hours of incubation at 37°, the extent of viral replication was determined by an ELISA assay; for instance, the following assay that detects the late glycoprotein C of HSV-1.
Cells were fixed in the microtiter plate with 100 μL of 0.063% glutaraldehyde in phosphate buffered saline for 30 min at room temperature. The microtiter plate was then washed once with casein blocking solution and blocked with 200 μL of the same solution for one hour at room temperature. Thereafter, 100 μL of mAb C11 recognizing the glycoprotein C of HSV-1 (see E. Trybala et al., Journal of General Virology, 1994, 75, 743) was added to each well for two hours at room temperature. The plate was washed three times with phosphate buffered saline containing 0.05% polyoxyethylene (20) sorbitan monooleate. The cells were incubated with 100 μL of sheep anti-mouse IgG horseradish peroxidase for one hour at room temperature in the dark.
The plate was washed three times with 200 μL of the above-noted phosphate buffer saline preparation, and then once with 0.1 M sodium citrate (pH 4.5). Thereafter, 100 μL of orthophenylenediamine dihydrochloride (OPD, Gibco, Canada Inc.) was added to each well. The plate was agitated on a microplate shaker for 30 min in the dark. Color development was monitored at 450 nm using a microplate spectrophotometer.
SAS was used to calculate % inhibition of viral replication and to generate EC50 values.

[1] = Human alphaherpesvirus 1, BHK-21, Group 1 Table 1 entries

| pIC50 (HSV-1 helicase-primase; Group 1 Table 1 entries) | pEC50 (HSV-1 strain F or KOS; [1]) | Structure (SMILES) | other results |
| --- | --- | --- | --- |
| 6.42 | 7.60 | COc1ccccc1CN(CC(=O)Nc1ccc(-c2csc(N)n2)cc1)C(=O)c1ccncc1 [Example 148] | – |
| 6.24 | 6.80 | Nc1nc(-c2ccc(NC(=O)CN(Cc3ccc(Cl)c(I)c3)C(=O)c3ccncc3)cc2)cs1 [Example 70] | – |
| 7.39 | 8.30 | Cc1cccc(CN(CC(=O)Nc2ccc(-c3csc(N)n3)cc2)C(=O)c2ccncc2)c1C [Example 154] | – |
| 6.35 | 7.26 | COc1cccc(CN(CC(=O)Nc2ccc(-c3csc(N)n3)cc2)C(=O)c2ccncc2)c1 [Example 149] | – |
| 5.70 | 6.92 | COc1ccc(CN(CC(=O)Nc2ccc(-c3csc(N)n3)cc2)C(=O)c2ccncc2)cc1 [Example 150] | – |
| 6.34 | 7.04 | Nc1nc(C(=O)N(CC(=O)Nc2ccc(-c3csc(N)n3)cc2)Cc2ccccc2)cs1 [Example 171] | – |
| 5.77 | 6.68 | Nc1nc(-c2ccc(NC(=O)CN(Cc3cccs3)C(=O)c3ccncc3)cc2)cs1 [Example 159] | – |
| 6.37 | 7.52 | Cc1ccn(C)c1C(=O)N(CC(=O)Nc1ccc(-c2csc(N)n2)cc1)Cc1ccccc1 [Example 166] | – |
| 6.15 | 5.82 | Nc1nc(-c2ccc(NC(=O)CN(Cc3ccccc3)C(=O)c3cscn3)cc2)cs1 [Example 170] | – |
| 5.47 | 6.28 | Nc1nc(-c2ccc(NC(=O)CN(Cc3cscn3)C(=O)c3ccncc3)cc2)cs1 [Example 161] | – |
| 5.80 | 7.11 | Cc1ccc(CN(CC(=O)Nc2ccc(-c3csc(N)n3)cc2)C(=O)c2ccncc2)cc1 [Example 152] | – |
| 5.04 | 5.18 | Nc1nc(-c2ccc(NC(=O)CN(CCc3ccncc3)C(=O)c3ccncc3)cc2)cs1 [Example 174] | – |
| 6.17 | 7.29 | Nc1nc(-c2ccc(NC(=O)CN(CCc3cccs3)C(=O)c3ccncc3)cc2)cs1 [Example 160] | – |
| 6.82 | 8.30 | Nc1nc(-c2ccc(NC(=O)CN(Cc3cccc(Cl)c3)C(=O)c3ccncc3)cc2)cs1 [Example 146] | – |
| 5.46 | 6.38 | Cc1cccc(C)c1CN(CC(=O)Nc1ccc(-c2csc(N)n2)cc1)C(=O)c1ccncc1 [Example 156] | – |
| – | 7.96 | Cc1ccccc1CN(CC(=O)Nc1ccc(-c2csc(N)n2)cc1)C(=O)c1ccncc1 [Example 102] | – |
| 5.72 | 6.72 | Nc1nc(-c2ccc(NC(=O)CN(Cc3c(F)cccc3F)C(=O)c3ccncc3)cc2)cs1 [Example 153] | – |
| – | 7.02 | Nc1nc(-c2ccc(NC(=O)CN(Cc3ccc(Cl)cc3)C(=O)c3ccncc3)cc2)cs1 [Example 55] | – |
| 7.40 | 8.00 | Cc1cc(C)cc(CN(CC(=O)Nc2ccc(-c3csc(N)n3)cc2)C(=O)c2ccncc2)c1 [Example 157] | – |
| 5.52 | 7.21 | Nc1nc(-c2ccc(NC(=O)CN(CCc3cscn3)C(=O)c3ccncc3)cc2)cs1 [Example 164] | – |
| 6.85 | 7.51 | Cc1cnccc1C(=O)N(CC(=O)Nc1ccc(-c2csc(N)n2)cc1)Cc1ccccc1 [Example 167] | – |
| 6.70 | 7.96 | Cc1ccc(C)c(CN(CC(=O)Nc2ccc(-c3csc(N)n3)cc2)C(=O)c2ccncc2)c1 [Example 155] | – |
| 7.12 | 7.96 | Cc1cccc(CN(CC(=O)Nc2ccc(-c3csc(N)n3)cc2)C(=O)c2ccncc2)c1 [Example 151] | – |
| 6.52 | 7.82 | Nc1nc(-c2ccc(NC(=O)CN(Cc3ccc(F)cc3)C(=O)c3ccccc3)cc2)cs1 [Example 59] | – |
| 5.85 | 6.82 | Nc1nc(-c2ccc(NC(=O)CN(Cc3ccccc3)C(=O)c3ccncn3)cc2)cs1 [Example 169] | – |
| 6.02 | 7.30 | Cc1nc(C)c(C(=O)N(CC(=O)Nc2ccc(-c3csc(N)n3)cc2)Cc2ccccc2)s1 [Example 173] | – |
| – | 6.74 | [N-]=[N+]=Nc1ccc(C(=O)N(CC(=O)Nc2ccc(-c3csc(N)n3)cc2)Cc2ccncc2)cc1 [Example 78] | – |
| – | 6.02 | Nc1nc(-c2ccc(NC(=O)CN(CC3CCCCC3)C(=O)c3ccncc3)cc2)cs1 [Example 57] | – |

The next lines start with the compound.

| Structure (SMILES) | pIC50 (HSV-1 helicase-primase; Group 1 Table 1 entries) | pEC50 (HSV-1 strain F or KOS; [1]) | other results |
| --- | --- | --- | --- |
| CN(C(=O)N(CC(=O)Nc1ccc(-c2csc(N)n2)cc1)Cc1ccccc1)C(C)(C)C [Example 94] | – | 7.19 | – |
| Nc1nc(-c2ccc(NC(=O)CN(Cc3ccc(Cl)cc3)C(=O)CC3CCCCC3)cc2)cs1 [Example 69] | – | 6.74 | – |
| [N-]=[N+]=Nc1ccc(C(=O)N(CC(=O)Nc2ccc(-c3csc(N)n3)cc2)Cc2ccc(Cl)cc2)cc1 [Example 65] | 6.08 | – | – |
| Nc1nc(-c2ccc(NC(=O)CN(Cc3ccccc3)C(=O)N3CCOCC3)cc2)cs1 [Example 95] | – | 7.43 | – |
| Nc1nc(-c2ccc(NC(=O)CNCc3cccc(F)c3)cc2)cs1 [Example 9] | ~5.30 | – | – |
| COc1ccc(CNCC(=O)Nc2ccc(-c3csc(N)n3)cc2)cc1 [Example 7] | 4.32 | 5.15 | – |
| Nc1nc(-c2ccc(NC(=O)CN(Cc3ccc(F)cc3)C(=O)C3CCCCC3)cc2)cs1 [Example 83] | – | 8.22 | – |
| C[C@@H](c1ccccc1)N(CC(=O)Nc1ccc(-c2csc(N)n2)cc1)C(=O)NC(C)(C)C [Example 105] | – | 6.54 | – |
| Nc1nc(-c2ccc(NC(=O)[C@H](Cc3ccccc3)NC(=O)OCc3ccccc3)cc2)cs1 [Example 23] | – | – | pIC50 (HSV-1 helicase-primase; Group 1 Table 5 entries): 6.22; pEC50 (HSV-1 strain F or KOS; Human alphaherpesvirus 1, BHK-21, Group 1 Table 5 entries): 7.03 |
| CNc1nc(-c2ccc(NC(=O)CNCc3ccccc3)cc2)cs1 [Example 7] | – | – | pEC50 (HSV-1 strain F or KOS; Human alphaherpesvirus 1, BHK-21, Group 1 Table 3 entries): 5.39 |
| Nc1nc(-c2ccc(NC(=O)CN(CC3CCCCC3)C(=O)CC3CCCC3)cc2)cs1 [Example 75] | – | 6.62 | – |
| Nc1nc(-c2ccc(NC(=O)CN(Cc3ccccc3F)Cc3ccccc3F)cc2)cs1 [Example 17] | 5.74 | 5.40 | – |
| Nc1nc(-c2ccc(NC(=O)CNCc3ccc(Cl)cc3)cc2)cs1 [Example 5] | 5.27 | 4.38 | – |
| [N-]=[N+]=Nc1ccc(C(=O)N(CC(=O)Nc2ccc(-c3csc(N)n3)cc2)Cc2ccccc2)cc1 [Example 74] | 6.55 | 6.92 | – |
| Nc1nc(-c2ccc(NC(=O)CN(Cc3ccccc3)S(=O)(=O)N3CCOCC3)cc2)cs1 [Example 96] | – | 6.92 | – |
| CC(C)COC(=O)N(CC(=O)Nc1ccc(-c2csc(N)n2)cc1)Cc1ccccc1 [Example 86] | – | 7.06 | – |
| Nc1nc(-c2ccc(NC(=O)CN(CCc3ccccc3)C(=O)C3CCCCC3)cc2)cs1 [Example 68] | – | 7.30 | – |
| CC(C)(C)NC(=O)N(CC(=O)Nc1ccc(-c2csc(N)n2)cc1)Cc1ccccc1 [Example 92] | – | 7.47 | – |
| CC(C)(C)OC(=O)N1CCC(C(=O)N(CC(=O)Nc2ccc(-c3csc(N)n3)cc2)CC2CCCCC2)CC1 [Example 61] | – | 5.80 | – |
| CC(C)CN(CC(=O)Nc1ccc(-c2csc(N)n2)cc1)C(=O)C1CCCCC1 [Example 81] | – | 6.74 | – |
| CC(C)(C)OC(=O)N(CC(=O)Nc1ccc(-c2csc(N)n2)cc1)CC1CCCCC1 [Example 100] | – | 6.07 | – |
